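A five-concentration, 48-hour dose response in 96-well plates underlies each endpoint, interpolated linearly between surrounding concentrations. GI50 is the concentration that inhibits growth by half.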 The source made the active and inactive calls. Rule as the data show it: active = GI50 up to about 1.1 µM and inactive = higher.
How the values were obtained:
Assay in all cases: NCI-60 cell line screen, 48 h
ACHN = system: ACHN
DMS-114 = system: DMS-114
HCC 2998 = system: HCC 2998
HCT-116 = system: HCT-116
HL-60 = system: HL-60
HOP-92 = system: HOP-92
IGROV-1 = system: IGROV-1
KM12 = system: KM12
MOLT-4 = system: MOLT-4
Malme-3M = system: Malme-3M
NCI-H522 = system: NCI-H522
RPMI-8226 = system: RPMI-8226
SF-295 = system: SF-295
UACC-257 = system: UACC-257
UACC-62 = system: UACC-62
UO-31 = system: UO-31

Measured: GI50

O=C1c2ccccc2-c2cccc3ccc(Cc4ccccc4)c1c23
inactive: ACHN > 100 µM | DMS-114 > 100 µM | HCC 2998 > 100 µM | HCT-116 > 100 µM | HL-60 > 100 µM | HOP-92 > 100 µM | IGROV-1 > 100 µM | KM12 > 100 µM | MOLT-4 > 100 µM | Malme-3M > 100 µM | NCI-H522 > 100 µM | RPMI-8226 > 100 µM | SF-295 > 100 µM | UACC-257 > 100 µM | UACC-62 > 100 µM | UO-31 > 100 µM

CCCN1C(=O)C/C(=C\C(C)=O)Nc2ccccc21
inactive: ACHN > 100 µM | DMS-114 71.4 µM | HCC 2998 > 100 µM | HCT-116 > 100 µM | HOP-92 > 100 µM | IGROV-1 > 100 µM | KM12 > 100 µM | MOLT-4 > 100 µM | Malme-3M > 100 µM | NCI-H522 > 100 µM | SF-295 > 100 µM | UACC-62 > 100 µM | UO-31 > 100 µM

O=c1cc2ccccc2nn1-c1ccccc1Cl
inactive: ACHN > 100 µM | DMS-114 48.3 µM | HCC 2998 > 100 µM | HCT-116 74.5 µM | HOP-92 > 100 µM | IGROV-1 > 100 µM | KM12 > 100 µM | Malme-3M > 100 µM | RPMI-8226 42.4 µM | SF-295 > 100 µM | UACC-257 > 100 µM | UACC-62 89.3 µM | UO-31 26.2 µM

CN(C)CCCNc1ccnc2c([N+](=O)[O-])cccc12
inactive: ACHN 31.1 µM | DMS-114 2.48 µM | HCC 2998 13.6 µM | HCT-116 15.3 µM | HL-60 > 10 µM | KM12 24.9 µM | MOLT-4 21.8 µM | Malme-3M 2.52 µM | NCI-H522 17.1 µM | RPMI-8226 21.6 µM | SF-295 20.9 µM | UACC-257 15.5 µM | UO-31 38.7 µM

N#C/N=C1\NCCC(=O)N1CCc1c[nH]c2ccccc12
inactive: DMS-114 > 100 µM | HCC 2998 > 100 µM | HCT-116 > 100 µM | HL-60 > 100 µM | IGROV-1 > 100 µM | KM12 > 100 µM | MOLT-4 > 100 µM | RPMI-8226 > 100 µM | SF-295 > 100 µM | UACC-257 > 100 µM | UACC-62 > 100 µM | UO-31 > 100 µM

CN(C)CCC(/C=C/c1ccccc1)=N\Nc1ccc(Cl)cc1
inactive: ACHN 2.23 µM | DMS-114 2.4 µM | HCC 2998 1.69 µM | HCT-116 3.51 µM | HL-60 2.18 µM | HOP-92 2.18 µM | IGROV-1 2.64 µM | KM12 2.84 µM | MOLT-4 2.23 µM | Malme-3M 12.7 µM | NCI-H522 3.24 µM | RPMI-8226 1.9 µM | SF-295 3.99 µM | UACC-257 4.18 µM | UACC-62 2.03 µM | UO-31 1.71 µM

O=C1/C(=N\O)S(=O)(=O)c2ccccc21
inactive: ACHN > 100 µM | DMS-114 > 100 µM | HCC 2998 > 100 µM | HCT-116 > 100 µM | HL-60 > 100 µM | HOP-92 > 100 µM | IGROV-1 > 100 µM | KM12 > 100 µM | MOLT-4 > 100 µM | Malme-3M > 100 µM | NCI-H522 > 100 µM | RPMI-8226 > 100 µM | SF-295 > 100 µM | UACC-257 > 100 µM | UACC-62 > 100 µM | UO-31 > 100 µM

N=C(N)NS(=O)(=O)c1ccc(Nc2c3ccccc3nc3c(C(=O)Nc4ccc(S(N)(=O)=O)cc4)cccc23)cc1
inactive: ACHN > 100 µM | DMS-114 45 µM | HCC 2998 55.5 µM | HCT-116 > 100 µM | HL-60 88.1 µM | HOP-92 47.9 µM | IGROV-1 > 100 µM | KM12 > 100 µM | MOLT-4 > 100 µM | Malme-3M > 100 µM | NCI-H522 15.8 µM | RPMI-8226 > 100 µM | SF-295 > 100 µM | UACC-257 > 100 µM | UACC-62 93.3 µM | UO-31 > 100 µM

O=C(c1ccccc1)c1c(-c2ccccc2)sc2nc3ccccc3nc12
inactive: ACHN > 100 µM | DMS-114 > 100 µM | HCC 2998 > 100 µM | HCT-116 > 100 µM | HL-60 > 100 µM | HOP-92 16.4 µM | IGROV-1 > 100 µM | KM12 > 100 µM | MOLT-4 > 100 µM | Malme-3M 92.3 µM | NCI-H522 > 100 µM | RPMI-8226 > 100 µM | SF-295 52.7 µM | UACC-257 > 100 µM | UACC-62 > 100 µM

COC1=CC(=O)c2c(cc3c(c2O)-c2c(OC)cc4cc5c(c(O)c4c2OC(=O)CC(C)(O)C3)C(=O)CC(C)(O)C5)C1=O (configuration not stated)
inactive: ACHN 2.64 µM | DMS-114 1.69 µM | HCC 2998 1.24 µM | HCT-116 2.45 µM | HL-60 1.34 µM | HOP-92 1.95 µM | IGROV-1 1.9 µM | KM12 2.41 µM | MOLT-4 2.27 µM | Malme-3M 1.82 µM | NCI-H522 1.32 µM | RPMI-8226 1.32 µM | SF-295 1.44 µM | UACC-257 1.76 µM | UACC-62 1.19 µM | UO-31 1.73 µM

Cc1ccc(C(=O)/C=C/c2cccc([N+](=O)[O-])c2)cc1
inactive: ACHN > 100 µM | DMS-114 46.5 µM | HCC 2998 > 54.7 µM | HCT-116 16.6 µM | HL-60 36.6 µM | HOP-92 > 100 µM | IGROV-1 > 67.9 µM | KM12 24.1 µM | MOLT-4 4.7 µM | Malme-3M > 100 µM | NCI-H522 62.5 µM | RPMI-8226 26.6 µM | SF-295 55.5 µM | UACC-257 > 100 µM | UACC-62 > 100 µM | UO-31 46.9 µM

Cc1cc([N+](=O)[O-])ccc1Nc1cccc(Cl)c1C
inactive: ACHN 17.8 µM | DMS-114 13.5 µM | HCC 2998 18.3 µM | HCT-116 16.1 µM | HL-60 18.2 µM | IGROV-1 13.6 µM | KM12 16 µM | MOLT-4 14.8 µM | Malme-3M 15.2 µM | NCI-H522 16.1 µM | SF-295 18.9 µM | UACC-257 18 µM | UACC-62 12.6 µM | UO-31 11.7 µM

O=C(OC1CCC2OOC1O2)c1ccc([N+](=O)[O-])cc1 (configuration not stated)
inactive: ACHN > 100 µM | DMS-114 > 100 µM | HCC 2998 > 100 µM | HCT-116 > 100 µM | HL-60 > 100 µM | IGROV-1 > 100 µM | KM12 > 100 µM | MOLT-4 > 100 µM | Malme-3M > 100 µM | NCI-H522 > 100 µM | RPMI-8226 > 100 µM | SF-295 > 100 µM | UACC-257 > 100 µM | UACC-62 > 100 µM | UO-31 > 100 µM

ClCCCCOC1CCCCO1 (configuration not stated)
inactive: ACHN > 100 µM | DMS-114 > 100 µM | HCC 2998 > 100 µM | HCT-116 > 100 µM | HL-60 > 100 µM | HOP-92 > 100 µM | IGROV-1 > 100 µM | KM12 > 100 µM | MOLT-4 > 100 µM | Malme-3M > 100 µM | NCI-H522 > 100 µM | SF-295 > 100 µM | UACC-257 > 100 µM | UACC-62 > 100 µM | UO-31 > 100 µM

COC(=O)C(=O)C(C#N)c1c(Cl)cccc1Cl (configuration not stated)
inactive: ACHN > 100 µM | DMS-114 > 100 µM | HCT-116 > 100 µM | HL-60 > 100 µM | HOP-92 > 100 µM | IGROV-1 > 100 µM | MOLT-4 > 100 µM | Malme-3M > 100 µM | NCI-H522 > 100 µM | RPMI-8226 > 100 µM | SF-295 > 100 µM | UACC-257 > 100 µM | UACC-62 > 100 µM | UO-31 > 100 µM

C[n+]1c2ccccc2c(/C=N\NS(=O)(=O)c2ccc(O)c(C(=O)O)c2)c2ccccc21
inactive: ACHN 80.2 µM | DMS-114 34 µM | HCC 2998 > 100 µM | HCT-116 32.6 µM | HL-60 22.1 µM | HOP-92 46.7 µM | IGROV-1 58.5 µM | KM12 60.3 µM | MOLT-4 18.5 µM | Malme-3M > 100 µM | NCI-H522 30.6 µM | RPMI-8226 40.6 µM | SF-295 > 100 µM | UACC-257 > 10 µM | UACC-62 49.3 µM | UO-31 29.2 µM

O=C1C2Cc3ccccc3CN2C(=O)N1CCN1CCOCC1 (configuration not stated)
inactive: ACHN > 100 µM | DMS-114 > 100 µM | HCC 2998 > 100 µM | HL-60 > 100 µM | IGROV-1 > 100 µM | KM12 > 100 µM | MOLT-4 > 100 µM | Malme-3M > 100 µM | NCI-H522 > 100 µM | RPMI-8226 > 100 µM | SF-295 > 100 µM | UACC-62 > 100 µM | UO-31 > 100 µM

COC(=O)C1C=CCON2CCc3c(n(C)c4ccccc34)C12 (configuration not stated)
inactive: ACHN > 100 µM | DMS-114 > 100 µM | HCC 2998 > 100 µM | HCT-116 > 100 µM | HL-60 > 100 µM | HOP-92 > 100 µM | IGROV-1 > 100 µM | KM12 > 100 µM | MOLT-4 > 100 µM | Malme-3M > 100 µM | NCI-H522 > 100 µM | RPMI-8226 > 100 µM | SF-295 > 100 µM | UO-31 > 100 µM

CN(C)CCCCC1CCN(CC(=O)N2c3ccccc3NC(=O)c3ccccc32)CC1
inactive: DMS-114 > 100 µM | HCC 2998 > 100 µM | HCT-116 > 100 µM | HL-60 > 100 µM | HOP-92 > 100 µM | KM12 > 100 µM | MOLT-4 > 100 µM | Malme-3M > 100 µM | NCI-H522 > 100 µM | RPMI-8226 > 100 µM | SF-295 > 100 µM | UACC-257 > 100 µM | UACC-62 > 100 µM | UO-31 > 100 µM

— ChEMBL document CHEMBL1201862, “PubChem BioAssay data set” (2004)
